Source: patent publication US20230144436A1, “MUSCLE TARGETING COMPLEXES AND USES THEREOF FOR TREATING MYOTONIC DYSTROPHY” (Dyne Therapeutics, Inc., priority 2020, published 2023)

Test system: DMPK
Test: DMPK knockdown by transfected antisense oligonucleotides in DM1 C15 myotubes at 0.5 nM and 50 nM
Format: cell-based
Conditions: 72 hours, qPCR; for Percent DMPK Reduction: relative to vehicle control; for Normalized DMPK Remaining: relative to vehicle control = 1.00
Protocol: Two hundred and thirty-six oligonucleotides for targeting DMPK were generated using in silico analysis. Each individual oligonucleotide was evaluated for their ability to target DMPK in cellulo at two doses—0.5 nM (low dose) and 50 nM (high dose).
Briefly, DM1 C15 immortalized myoblasts were cultured in T-75 flasks until near confluency (˜80% confluent). Myoblasts were then disrupted with trypsin and seeded into 96-well microplates at a density of 50,000 cells/well. Cells were allowed to recover overnight before the growth media was washed out and replaced with a no-serum media to induce differentiation into myotubes. Differentiation proceeded for seven days prior to treatment with DMPK-targeting oligonucleotides.
On day seven following induction of differentiation, DM1 C15 myotubes were transfected with an individual oligonucleotide using 0.3 μL of Lipofectamine MessengerMax per well. All oligonucleotides were tested at both 0.5 nM and 50 nM final concentrations in biological triplicates. After treatment with oligonucleotides, cells were incubated for 72 hours prior to being harvested for total RNA. cDNA was synthesized from the total RNA extracts and qPCR was performed to determine expression levels of DMPK in technical quadruplicate. All qPCR data were analyzed using a traditional […] method and were normalized to a plate-based negative control that comprised cells treated with vehicle control (0.3 μL/well Lipofectamine MessengerMax without any oligonucleotide). Results from these experiments are shown in Table 10. ‘Normalized DMPK Remaining’ for each antisense oligonucleotide in Table 10 refers to the expression level of DMPK in cell treated with said antisense oligonucleotide relative to the negative control that comprised cells treated with vehicle control (wherein the expression level of the negative control has been normalized to equal 1.00)

Row | Substance | Percent DMPK Reduction (0.5 nM oligonucleotide) | Normalized DMPK Remaining (0.5 nM oligonucleotide) | Percent DMPK Reduction (50 nM oligonucleotide) | Normalized DMPK Remaining (50 nM oligonucleotide)
1 | 290 (GGCCAUGACAAUCUCCGCCA; chemistry not given here) [compound 290] | 42.38% | 0.58 | 75.00% | 0.25
2 | 291 (AUACUCCAUGACCAGGUACA; chemistry not given here) [compound 291] | 23.07% | 0.77 | 56.84% | 0.43
3 | 292 (GCCUCUGCCUCGCGUAGUUG; chemistry not given here) [compound 292] | 35.38% | 0.65 | 81.18% | 0.19
4 | 295 (CCUUGUAGUGGACGAUCUUG; chemistry not given here) [compound 295] | 17.20% | 0.83 | 65.91% | 0.34
5 | 296 (AUCUCCGCCAGGUAGAAGCG; chemistry not given here) [compound 296] | 42.37% | 0.58 | 65.50% | 0.35
6 | 297 (CUCAGGCUCUGCCGGGUGAG; chemistry not given here) [compound 297] | 30.13% | 0.70 | 63.07% | 0.37
7 | 298 (UGCUUCAUCUUCACUACCGC; chemistry not given here) [compound 298] | 28.82% | 0.71 | 60.24% | 0.40
8 | 300 (GGCCUCAGCCUCUGCCGCAG; chemistry not given here) [compound 300] | 20.12% | 0.80 | 71.28% | 0.29
9 | 302 (CCACGUAAUACUCCAUGACC; chemistry not given here) [compound 302] | 20.84% | 0.79 | 50.06% | 0.50
10 | 303 (CCGUUCCAUCUGCCCGCAGC; chemistry not given here) [compound 303] | 31.74% | 0.68 | 77.46% | 0.23
11 | 304 (UUCCCGAGUAAGCAGGCAGA; chemistry not given here) [compound 304] | 31.49% | 0.69 | 49.81% | 0.50
12 | 305 (UGAUCUUCAUGGCAUACACC; chemistry not given here) [compound 305] | 27.70% | 0.72 | 89.68% | 0.10
13 | 306 (AGGGACAGCCGCUGGAACTG; chemistry not given here) [compound 306] | 28.72% | 0.71 | 45.34% | 0.55
14 | 307 (GGGUUUGAUGUCCCUGUGCA; chemistry not given here) [compound 307] | 40.12% | 0.60 | 62.61% | 0.37
15 | 308 (UGACAAUCUCCGCCAGGUAG; chemistry not given here) [compound 308] | 38.86% | 0.61 | 66.56% | 0.33
16 | 309 (CACAGCGGUCCAGCAGGAUG; chemistry not given here) [compound 309] | 6.62% | 0.93 | 59.58% | 0.40
